{"source": "patent US8956622B2", "about": "“Peptidic antagonists of class III semaphorins/neuropilins complexes” (INSERM—Institut National de la Sante et de la Recherche …, priority 2005, dated 2015)", "key": {"NRP1 [1]": {"target": "T1, NRP1 (Homo sapiens, UniProt O14786)", "T1 construct": "mutations were introduced into the TM domain of a full length NRP1; expressed in transfected cells; host or cells: COS-1 cells, pBK-CMV plasmid (cDNA provided by Pr. Puschel)", "T1 sequence (O14786 22-923)": "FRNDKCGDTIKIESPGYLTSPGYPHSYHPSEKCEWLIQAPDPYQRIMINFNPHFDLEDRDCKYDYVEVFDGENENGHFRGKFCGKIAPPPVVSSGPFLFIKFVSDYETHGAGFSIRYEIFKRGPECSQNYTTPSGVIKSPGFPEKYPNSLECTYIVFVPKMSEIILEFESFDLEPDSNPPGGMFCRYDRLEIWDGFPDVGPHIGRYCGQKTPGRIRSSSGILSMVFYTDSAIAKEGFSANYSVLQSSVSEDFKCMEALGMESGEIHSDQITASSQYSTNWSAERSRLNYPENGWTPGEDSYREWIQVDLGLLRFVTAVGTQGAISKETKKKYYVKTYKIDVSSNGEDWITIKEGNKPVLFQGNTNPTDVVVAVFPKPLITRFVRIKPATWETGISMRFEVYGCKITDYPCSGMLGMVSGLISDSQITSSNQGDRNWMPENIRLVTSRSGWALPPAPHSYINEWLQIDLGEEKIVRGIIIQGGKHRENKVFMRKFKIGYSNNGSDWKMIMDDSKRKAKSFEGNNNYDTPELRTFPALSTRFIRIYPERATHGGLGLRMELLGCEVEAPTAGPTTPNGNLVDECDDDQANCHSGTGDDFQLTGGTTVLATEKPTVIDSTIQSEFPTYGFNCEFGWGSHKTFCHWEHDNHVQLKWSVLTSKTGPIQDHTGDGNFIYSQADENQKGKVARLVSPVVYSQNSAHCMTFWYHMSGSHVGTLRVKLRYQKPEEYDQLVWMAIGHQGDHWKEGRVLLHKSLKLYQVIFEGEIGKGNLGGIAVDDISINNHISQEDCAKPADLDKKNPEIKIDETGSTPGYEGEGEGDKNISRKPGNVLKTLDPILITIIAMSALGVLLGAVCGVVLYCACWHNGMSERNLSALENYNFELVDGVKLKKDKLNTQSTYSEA", "experiment": "AP-Sema3A binding to NRP1-expressing COS cells (optical density per cell)", "conditions": "peptide 10^−9 M, 1 hour pre-incubation", "experimental": "NRP1 expressing COS cells were incubated with AP-Sema3A, a fusion protein of Sema3A and the secreted alkaline phosphatase (BAGNARD et al., 1998).\nWild-type COS cells or NRP1-expressing COS cells (COS-NRP1) were cultured on 12-wells plates on poly-L-lysine-coated glass coverslips (0.005 mg/ml). After one-hour incubation with pTM-NRP1 or pTM-NRP1^mut (10^−9M) in serum-free medium at 37° C., the culture medium was replaced by conditioned medium containing alkaline phosphatase-coupled Sema3A (AP-Sema3A; BAGNARD et al., 1998) obtained from AP-Sema3A stably expressing HEK cells for 90 mn. Conditioned medium without semaphorin served as a control (obtained from non-transfected HEK). Cells were washed three times with PBS and fixed in 4% formaldehyde before transfer in a new dish. After three washes in PBS, the plate was warmed for 50 mn at 65° C. Cells were subsequently incubated with 1 ml of alkaline phosphatase substrate (NBT/BCIP, SIGMA) in the dark. After 45 mn, substrate was removed and glass coverslips were rinsed. Pictures were acquired with a conventional microscope and analyzed with AxioVision LE Zeiss software. For each condition tested, about 60 cells were analyzed to determine binding levels as a function of optical density. Statistical analysis was performed by using a Student's t test."}, "NRP1 [2]": {"target": "T2, NRP1 (Rattus norvegicus, UniProt Q9QWJ9)", "T2 construct": "Rat C6 glioma cells, which express semaphorin receptors; endogenous in cells; host or cells: rat C6 glioma cells", "experiment": "AP-Sema3A binding to its receptor NRP1 on C6 glioma cells (luminescence)", "experimental": "In order to investigate the NRP1 transmembrane domain role in the linkage NRP1-class III semaphorins, the binding of the ligand Sema3A to its receptor NRP1 on glioma cells was measured in the presence or not of the transmembrane domain peptide of NRP1 (pTM-NRP1 peptide; SEQ ID NO. 1) or of a mutated peptide (mpTM-NRP1; SEQ ID NO. 20, […]). These pTM-NRP1 Peptides have been synthesized by automatic peptidic synthesis (Fmoc chemistry, APPLIED SYSTEM), and analyzed by mass spectrometry. Peptides purity has been estimated by RP-HPLC (BECKMAN) as higher than 90%.\nRat C6 glioma cells, which express semaphorin receptors, has been used to determine the binding capacity of AP-Sema3A, a secreted alkaline phosphatase version of Sema 3A (ADAMS et al., 1997, BAGNARD et al., 1998). These cells were grown and plated in MEM medium (GIBCO) with 10% foetal calf serum (PERBIO), glutamine 0.5 mM (GIBCO) and antibiotics: 100 U/ml penicillin and 100 μg/ml streptomycin (SIGMA).\nC6 Cells were cultured in 96-well plates and incubated with or without freshly diluted pTM-NRP1 or pTM-NRP1^mut peptides (10^−12 M to 10^−10 M) for 1 hour at 37° C. The culture medium has been then replaced by conditioned medium of HEK cells stably transfected with a construction expressing AP-Sema 3A (ADAMS et al., EMBO J., vol. 16(20), p: 6077-86, 1997; BAGNARD et al., 1998). Conditioned medium from HEK non transfected cells has been used as an internal control. The pTM-NRP1 Peptide has been synthesized by automatic peptidic synthesis (Fmoc chemistry, APPLIED SYSTEM), and analyzed by mass spectrometry. Peptides purity has been estimated by RP-HPLC (BECKMAN) as higher than 90%, the cells have been washed with PBS and incubated with 50 μl of alkaline phosphatase luminescent substrate (AMERSHAM). The luminescence has been read after 15 minutes with MICROLUMAT PLUS system (BERTHOLD TECHNOLOGIES) according to the manufacturer's instructions. Experiments were done 4 times for each peptide."}, "C6 glioma": {"system": "C6 glioma", "experiment": "C6 glioma cells pre-incubated with peptide and injected into the striatum, tumour development at 8 days", "assay_type": "in vivo, rats", "experimental": "The rat C6 glioma cell line, which is a good model of human glioma (DAI and HOLLAND, Biochim. Biophys. Acta, vol. 1551, p: M19-27, 2001), has been used to investigate how the blockade of NRP1 by using our peptidic strategy (pTM-NRP1) may interfere with cell migration and dissemination.\nC6 cells (ATCC CCL-107) were stained using PKH26 (Sigma). Cells were incubated with peptides (pTM-NRP1 10^−8M or mutated pTM-NRP1 10^−8M) prior to injections for at least 2 h on ice in culture medium (composed of MEM with 5000 u/ml penicillin, 5 mg/ml streptomycin, 200 mM L-glutamine and 10% fetal calf serum). Injections of 10^6 cells were performed using a stereotaxic frame according to the following coordinates: antero-posterior, +1.6 mm relative to Bregma; L, +2 mm; H, +5 mm relative to the cortical surface.\nAll injections were performed in the left striatum.\nFollowing a survival period of 8 days, the animals (3 groups of 4 rats) were killed by a lethal intra-peritoneal injection of pentobarbital before trans-cardiac perfusion with a pre-rinse of 100 ml PBS followed by 500 ml of 2% formaldehyde. The brains were post-fixed during 2 hours at 4° C. and sagittal sections (70 μm) were prepared on a vibratome.\nOne group of sections were mounted in PBS-glycerol (v/v) for microscopic observation, and another one was treated for immunostaining of CD34. […]"}}, "data": [{"sequence": "ILITIIAMSALGVLLGAVCGVVL [pTM-NRP1]", "values": [{"measurement": "binding of AP-Sema3A to NRP1-expressing COS cells", "setting": "NRP1 [1]", "value": "significantly reduced"}, {"measurement": "decrease of binding of AP-Sema3A to NRP1 compared to the absence of peptide", "setting": "NRP1 [2]; C6 cells, peptide 10^−10 M", "value": "about 50%"}, {"measurement": "binding of AP-Sema3A to its receptor NRP1 on C6 cells", "setting": "NRP1 [2]; peptide 10^−12 M to 10^−10 M, 1 hour", "value": "blocked in a dose dependent manner"}, {"measurement": "tumour size", "setting": "C6 glioma; C6 cells treated with peptide 10^−8 M prior to injection in the left striatum, 8 days, n=4", "value": "strong reduction"}, {"measurement": "immunoreactivity for CD34, a marker of neoangiogenesis", "setting": "C6 glioma; C6 cells treated with peptide 10^−8 M prior to injection, brain sections at 8 days", "value": "strong reduction"}]}]}
